Experimental data taken from patent publication US10858368B2, “Modulators of the 5-hydroxytryptamine receptor 7 and their method of use” (Temple University—Of The Commonwealth System of Higher …, priority 2016, dated 2020).

Biological target: 5HT7 receptors (Homo sapiens (Human), UniProt P34969)
Assay: Radiolabel Binding Studies for Serotonin 5-HT7 Receptors, Method 2 ([3H]-5HT competition; Ki, and percent inhibition at 10 μM)
Settings: single concentration 10 uM; inhibition of radioligand binding to 5HT7 receptors; read-out: 5-HT7 % inhib @ 10 uM
Description: A solution of the compound of the disclosure to be tested is prepared as a 1-mg/ml stock in Assay Buffer or DMSO according to its solubility. A similar stock of the reference compound chlorpromazine is also prepared as a positive control. Eleven dilutions (5× assay concentration) of the compound of the disclosure and chlorpromazine are prepared in the Assay Buffer by serial dilution to yield final corresponding assay concentrations ranging from 10 pM to 10 μM.
A stock concentration of 5 nM [^3H]-5-Hydroxytryptamine ([^3H]-5HT) is prepared in 50 mM Tris-HCl, 10 mM MgCl2, 1 mM EDTA, pH 7.4 (Assay Buffer). Aliquots (50 μl) of radioligand are dispensed into the wells of a 96-well plate containing 100 al of Assay Buffer. Duplicate 50-μl aliquots of the compound of the disclosure test and chlorpromazine positive control reference compound serial dilutions are added.
Membrane fractions of cells expressing recombinant 5HT7 receptors (50 μL) are dispensed into each well. The membranes are prepared from stably transfected cell lines expressing 5HT7 receptors cultured on 10-cm plates by harvesting PBS-rinsed monolayers, resuspending and lysing in chilled, hypotonic 50 mM Tris-HCl, pH 7.4, centrifuging at 20,000×g, decanting the supernatant and storing at −80° C.; the membrane preparations are resuspended in 3 ml of chilled Assay Buffer and homogenized by several passages through a 26 gauge needle before using in the assay.
The 250-μl reactions are incubated at room temperature for 1.5 hours, then harvested by rapid filtration onto 0.3% polyethyleneimine-treated, 96-well filter mats using a 96-well Filtermate harvester. Four rapid 500-μl washes are performed with chilled Assay Buffer to reduce non-specific binding. The filter mats are dried, then scintillant is added to the filters and the radioactivity retained on the filters is counted in a Microbeta scintillation counter.
Raw data (dpm) representing total radioligand binding (i.e., specific+non-specific binding) are plotted as a function of the logarithm of the molar concentration of the competitor (i.e., test or reference compound). Non-linear regression of the normalized (i.e., percent radioligand binding compared to that observed in the absence of test or reference compound) raw data is performed in Prism 4.0 (GraphPad Software) using the built-in three parameter logistic model describing ligand competition binding to radioligand-labeled sites: y=bottom+[(top−bottom)/(1+10×−log IC50)] where bottom equals the residual radioligand binding measured in the presence of 10 μM reference compound (i.e., non-specific binding) and top equals the total radioligand binding observed in the absence of competitor. The log IC50 (i.e., the log of the ligand concentration that reduces radioligand binding by 50%) is thus estimated from the data and used to obtain the Ki by applying the Cheng-Prusoff approximation: Ki=IC50/(1+[ligand]/KD) where [ligand] equals the assay radioligand concentration and KD equals the affinity constant of the radioligand for the target receptor.
Compounds of the disclosure are also screened at a single concentration of 10 μM using the same method described for the Radiolabel Binding Studies for Serotonin 5HT7 receptors to determine the percent inhibition of [^3H]-5HT binding.

Sequence of 5HT7 receptors (P34969 whole entry): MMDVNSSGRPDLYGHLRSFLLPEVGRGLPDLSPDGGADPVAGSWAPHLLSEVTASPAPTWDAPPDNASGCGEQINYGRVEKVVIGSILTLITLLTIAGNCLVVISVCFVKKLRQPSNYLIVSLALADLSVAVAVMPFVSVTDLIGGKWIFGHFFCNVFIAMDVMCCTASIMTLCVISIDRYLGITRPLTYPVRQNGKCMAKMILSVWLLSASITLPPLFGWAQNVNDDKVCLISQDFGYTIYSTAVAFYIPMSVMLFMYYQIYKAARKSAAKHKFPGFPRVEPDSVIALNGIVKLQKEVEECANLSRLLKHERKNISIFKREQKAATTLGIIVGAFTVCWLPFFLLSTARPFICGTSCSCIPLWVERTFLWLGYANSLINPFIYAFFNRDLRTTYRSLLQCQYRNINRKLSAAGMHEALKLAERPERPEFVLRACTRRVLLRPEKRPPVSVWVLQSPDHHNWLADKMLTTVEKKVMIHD

inhibition at 10 µM [%]	Compound
91.6	CNC(=O)N1CCC2(CC1)CC(CCN1CCN(c3ccc(C)cc3)CC1)OC2=O (stereo not shown) [Entry 5]
96.5	Cc1ccc(N2CCN(CCC3CC4(CCN(Cc5ccccc5)CC4)C(=O)O3)CC2)cc1 (stereo not shown) [Entry 1]
88.8	Cc1ccc(N2CCN(CCC3CC4(CCNCC4)C(=O)O3)CC2)cc1 (stereo not shown) [Entry 2]
90.5	Cc1ccc(N2CCN(CCC3CC4(CCN(S(C)(=O)=O)CC4)C(=O)O3)CC2)cc1 (stereo not shown) [Entry 6]
90	COC(=O)N1CCC2(CC1)CC(CCN1CCN(c3ccc(C)cc3)CC1)OC2=O (stereo not shown) [Entry 3]
88.5	CC(=O)N1CCC2(CC1)CC(CCN1CCN(c3ccc(C)cc3)CC1)OC2=O (stereo not shown) [Entry 4]
100	Cc1nc2cccc(N3CCN(CCC4CC5(CCN(S(C)(=O)=O)CC5)C(=O)O4)CC3)c2[nH]1 (stereo not shown) [Entry 8]
